In PMC6037002, “Drug targeting to decrease cardiotoxicity – determination of the cytotoxic effect of GnRH-based conjugates containing doxorubicin, daunorubicin and methotrexate on human cardiomyocytes and endothelial cells” (Beilstein Journal of Organic Chemistry, 2018):
Read-outs that look alike come from different tables or passages of the source.

Tests used:
[1] = test system: human umbilical vein endothelial cells (HUVEC); experiment: Impedimetric measurement (xCELLigence SP), delta slope, HUVEC; conditions: for delta slope (DS), short-term / delta slope (DS), long-term: HUVEC, three parallels; for delta slope (DS), short-term: 0–2 h; for delta slope (DS), long-term: 0–72 h
Excerpt: (§1) The main objective of the study reported here was to evaluate the in vitro cardiotoxic effects (as undesired side effects) of […] GnRH-III-based conjugates containing doxorubicin, daunorubicin and methotrexate on two essential target cells of cardiovascular diseases: vascular endothelial cells and cardiomyocytes. The rate of cytotoxicity (antitumor effect) vs cardiotoxicity (toxic effects on cardiomyocytes and vascular endothelium) is an important factor for efficient drug development for targeted tumor therapy with minimized side effects. The technique used in this work – impedimetry – is a dedicated one for real-time monitoring of cells to distinguish short-term (0–2 hours) and long-term (0–72 hours) effects elicited by the drug or carrier–drug conjugates. The basic theory of impedimetry is that proliferation/viability of cells is well detectable by monitoring of the electric impedance (Z) in an AC environment, due to the electric insulator character of intact surface membranes composed of the phospholipid bilayer. […] While cell physiological responses of short-term exposures result in characteristic changes of cell morphology (e.g., spreading), long-term effects characteristically influence in particular the proliferation of cells, and therefore the cytotoxic effects. The presented dimensionless values of delta slope (DS) measure the difference between the slope of the curve corresponding to the treatment and that of the control curve in impedimetric recordings, the negative signs refer to the relative values to the identical control.
(§2) Experimental part – Cellular samples
(§3) In the present study, GnRH conjugates containing anti-tumour drugs (e.g., daunorubicin, doxorubicin) were investigated in order to evaluate whether the conjugates exert a decrease cardiotoxic effect compared to that of the free drugs. The cardiac myocytes and the vascular endothelium cells are the most frequently detected target cells of antitumor compounds and they are employed in our study. Human umbilical vein endothelial cells (HUVEC; Promocell, Biomedica, Wien, Austria) were cultured in Endothelial Cell Growth Medium with Endothelial Cell Growth Supplement Mix (Promocell, Biomedica, Wien, Austria) and 100 µg/mL penicillin/streptomycin. Primary human cardiac myocytes (HCM; Promocell, Biomedica, Wien, Austria) were cultured in Myocyte Growth Medium (Promocell, Biomedica, Wien, Austria).
(§4) Impedimetric measurements
(§5) The xCELLigence SP system was used for impedimetric measurements. The bottom of the wells of a 96-well E-plate is installed with a golden electrode array that constitutes the adhesion surface. Adhering cells – acting as insulators – change the electric impedance measured on the electrodes. The measured impedance change is in direct correlation with the number of adhering cells and the extent of adhesion. The results of impedance change are given in the form of Cell Index (CI) calculated by the xCELLigence system according to the […]
(§6) where Zt is the measured impedance in a time point, Zb is the background impedance and F is an inbuilt factor (F = 15 at 10 kHz) depending on the frequency of the alternating current. The measurements took place in an incubator holding a 37 °C temperature and 5% carbon-dioxide […]
(§7) The experiments started with a measurement of baseline impedance for 1 hour. After that, the cells (10^4 cells/well) were added to the wells and allowed to adhere to the electrodes. When the adhering cells reached a balanced state in the wells, signified by the impedance curves […]
(§8) free drugs at 10−12 – 10−6 M and the conjugates at 10−8 – 10−6 M final concentrations were […]
(§9) added to the wells. The changes in impedance were measured for at least 72 hours. For each measurement three parallels were measured.
(§10) The evaluation of responses followed the previously described strategy: acute effects of compounds were evaluated as a characteristic morphology of the curves in the 0–2 hours

[2] = test system: MCF-7 human breast adenocarcinoma cells; conditions: MTT assay; cited from earlier work
Excerpt: (§11) Table 1 Comparative study of cytotoxic effects and cardiotoxicity elicited by GnRH-based antitumor compounds (1–15) and reference substances (AN-152, Dox, Dau, Mtx). IC50 values show antitumor cytotoxic characteristics of the conjugates in human breast cancer (MCF-7), human colorectal adenocarcinoma (HT-29) and human acute monocytic leukemia (MM6) derived cell lines as representative tumor cells.

[3] = test system: human acute monocytic leukemia (MonoMac6) cells; conditions: cited from earlier work
Excerpt: as §11

[4] = test system: HT-29 human colon adenocarcinoma cells; conditions: MTT assay; cited from earlier work
Excerpt: as §11

[5] = test system: primary human cardiac myocytes (HCM); conditions: for delta slope (DS), short-term / delta slope (DS), long-term: HCM, three parallels; for delta slope (DS), short-term: 0–2 h; for delta slope (DS), long-term: 0–72 h
Excerpt: as §1, §2, §3, §4, §5, §6, §7, §8, §9, §10

[6] = grade +++/++/+/0, key not given, summary of impedimetric cytotoxicity

With `COc1cccc2c1C(=O)c1c(O)c3c(c(O)c1C2=O)C[C@@](O)(C(=O)CO)C[C@@H]3O[C@H]1C[C@H](N)[C@H](O)[C@H](C)O1` [doxorubicin] the “Cardiotoxicity, HUVEC” value [1] was “+++”, the “delta slope (DS), short-term” value ([1]; Table S1a, 10^-6 mol/L) was 0.063 and the “delta slope (DS), short-term” value ([1]; Table S1a, 10^-7 mol/L) was 0.037. For the same molecule, the “delta slope (DS), short-term” value ([1]; Table S1a, 10^-8 mol/L) was -0.008, the “delta slope (DS), short-term” value ([1]; Table S1a, 10^-9 mol/L) was 0.003 and the “delta slope (DS), short-term” value ([1]; Table S1a, 10^-10 mol/L) was -0.004. For the same molecule, the “delta slope (DS), short-term” value ([1]; Table S1a, 10^-11 mol/L) was 0.021, the “delta slope (DS), short-term” value ([1]; Table S1a, 10^-12 mol/L) was 0.008 and the “delta slope (DS), short-term” value ([1]; Table S2a, 10^-6 mol/L) was 0.012. The “delta slope (DS), short-term” value ([1]; Table S2a, 10^-7 mol/L) was 0.032, the “delta slope (DS), short-term” value ([1]; Table S2a, 10^-8 mol/L) was 0.002 and the IC50 [2] was 100 nM. For the same molecule, the IC50 [3] was 7 ± 0.1 nM, the IC50 [4] was 100 nM and the “Cardiotoxicity, HCM” value [5] was “+++”. The “delta slope (DS), short-term” value ([5]; Table S1b, 10^-6 mol/L) was 0.019, the “delta slope (DS), short-term” value ([5]; Table S1b, 10^-7 mol/L) was 0.003 and the “delta slope (DS), short-term” value ([5]; Table S1b, 10^-8 mol/L) was 0.001. For the same molecule, the “delta slope (DS), short-term” value ([5]; Table S1b, 10^-9 mol/L) was -0.001, the “delta slope (DS), short-term” value ([5]; Table S1b, 10^-10 mol/L) was 0.002 and the “delta slope (DS), short-term” value ([5]; Table S1b, 10^-11 mol/L) was 0.002. The “delta slope (DS), short-term” value ([5]; Table S1b, 10^-12 mol/L) was 0.001, the “delta slope (DS), short-term” value ([5]; Table S2b, 10^-6 mol/L) was 0.057 and the “delta slope (DS), short-term” value ([5]; Table S2b, 10^-7 mol/L) was -0.001. For the same molecule, the “delta slope (DS), short-term” value ([5]; Table S2b, 10^-8 mol/L) was 0.001.
In the case of GnRH-III(Dox-glut-GFLG) [conjugate 2], the “delta slope (DS), short-term” value ([1]; Table S2a, 10^-6 mol/L) is reported as 0.058, the “delta slope (DS), short-term” value ([1]; Table S2a, 10^-7 mol/L) is reported as 0.016 and the “delta slope (DS), short-term” value ([1]; Table S2a, 10^-8 mol/L) is reported as -0.004. The “delta slope (DS), long-term” value ([1]; Table S2a, 10^-6 mol/L, listed as 2) was -0.042, the “delta slope (DS), long-term” value ([1]; Table S2a, 10^-6 mol/L, listed as GnRH-III(Dox-glut-GFLG)) was −0.042 and the “delta slope (DS), long-term” value ([1]; Table S2a, 10^-7 mol/L, listed as 2) was -0.017. For the same molecule, the “delta slope (DS), long-term” value ([1]; Table S2a, 10^-7 mol/L, listed as GnRH-III(Dox-glut-GFLG)) was −0.017, the “delta slope (DS), long-term” value ([1]; Table S2a, 10^-8 mol/L) was -0.002 and the IC50 [2] was over 100000 nM. For the same molecule, the IC50 [3] was 89 ± 20 nM, the IC50 [4] was over 100000 nM and the “delta slope (DS), short-term” value ([5]; Table S2b, 10^-6 mol/L) was 0.008. For the same molecule, the “delta slope (DS), short-term” value ([5]; Table S2b, 10^-7 mol/L) was 0.003, the “delta slope (DS), short-term” value ([5]; Table S2b, 10^-8 mol/L) was 0.009 and the “delta slope (DS), long-term” value ([5]; Table S2b, 10^-6 mol/L) was −0.019. For the same molecule, the “delta slope (DS), long-term” value ([5]; Table S2b, 10^-7 mol/L) was −0.004 and the “delta slope (DS), long-term” value ([5]; Table S2b, 10^-8 mol/L) was 0.001.
In the case of GnRH-III(Dau=Aoa-YRRL) [conjugate 8], the “delta slope (DS), short-term” value ([1]; Table S4a, 10^-6 mol/L) is reported as 0.003, the “delta slope (DS), short-term” value ([1]; Table S4a, 10^-7 mol/L) is reported as -0.004 and the “delta slope (DS), short-term” value ([1]; Table S4a, 10^-8 mol/L) is reported as -0.010. The “delta slope (DS), long-term” value ([1]; Table S4a, 10^-6 mol/L) was −0.018, the “delta slope (DS), long-term” value ([1]; Table S4a, 10^-7 mol/L) was -0.002 and the “delta slope (DS), long-term” value ([1]; Table S4a, 10^-8 mol/L) was -0.007. For the same molecule, the IC50 [2] was 1800 ± 500 nM, the IC50 [3] was over 1000 nM and the IC50 [4] was 28600 ± 5500 nM. The “delta slope (DS), short-term” value ([5]; Table S4b, 10^-6 mol/L) was -0.002, the “delta slope (DS), short-term” value ([5]; Table S4b, 10^-7 mol/L) was -0.001 and the “delta slope (DS), short-term” value ([5]; Table S4b, 10^-8 mol/L) was -0.003. The “delta slope (DS), long-term” value ([5]; Table S4b, 10^-6 mol/L) was −0.004, the “delta slope (DS), long-term” value ([5]; Table S4b, 10^-7 mol/L) was -0.002 and the “delta slope (DS), long-term” value ([5]; Table S4b, 10^-8 mol/L) was -0.001.
In the case of “[^4Lys(Mtx)]-GnRH-III(Dau=Aoa) [conjugate 15]”, the “delta slope (DS), short-term” value ([1]; Table S5a, 10^-6 mol/L) is reported as 0.006, the “delta slope (DS), short-term” value ([1]; Table S5a, 10^-7 mol/L) is reported as -0.002 and the “delta slope (DS), short-term” value ([1]; Table S5a, 10^-8 mol/L) is reported as 0.006. The “delta slope (DS), long-term” value ([1]; Table S5a, 10^-6 mol/L) was -0.001, the “delta slope (DS), long-term” value ([1]; Table S5a, 10^-7 mol/L) was -0.001 and the “delta slope (DS), long-term” value ([1]; Table S5a, 10^-8 mol/L) was 0.003. For the same molecule, the “Cardiotoxicity, HUVEC” value [1, 6] was 0, the “cytotoxic effect on HUVEC, result in words” value ([1]; long-term (0–72 h), 10^−8–10^−6 mol/L, impedimetry, one-way ANOVA) was “no significant cytotoxic effect” and the IC50 [2] was 5800 ± 1100 nM. For the same molecule, the IC50 [3] was over 1000 nM, the IC50 [4] was 3600 ± 1500 nM and the “delta slope (DS), short-term” value ([5]; Table S5b, 10^-6 mol/L) was -0.001. The “delta slope (DS), short-term” value ([5]; Table S5b, 10^-7 mol/L) was -0.002, the “delta slope (DS), short-term” value ([5]; Table S5b, 10^-8 mol/L) was -0.003 and the “delta slope (DS), long-term” value ([5]; Table S5b, 10^-6 mol/L) was -0.001. For the same molecule, the “delta slope (DS), long-term” value ([5]; Table S5b, 10^-7 mol/L) was 0.001, the “delta slope (DS), long-term” value ([5]; Table S5b, 10^-8 mol/L) was -0.001 and the “Cardiotoxicity, HCM” value [5, 6] was 0. For the same molecule, the “cytotoxic effect on HCM, result in words” value ([5]; long-term (0–72 h), 10^−8–10^−6 mol/L (free drugs 10^−12–10^−6 mol/L), impedimetry, one-way ANOVA) was “none of the two investigated mixed drug–GnRH-III conjugates (13 and 15) exerted any significant cytotoxic effect”.
In the case of “Glp-His-Trp-Ser-Tyr-D-Lys(Dox-O-glut)-Leu-Arg-Pro-Gly-NH2 [AN-152, reference compound]”, the “delta slope (DS), short-term” value ([1]; Table S2a, 10^-6 mol/L) is reported as 0.031, the “delta slope (DS), short-term” value ([1]; Table S2a, 10^-7 mol/L) is reported as 0.014 and the “delta slope (DS), short-term” value ([1]; Table S2a, 10^-8 mol/L) is reported as -0.004. The “delta slope (DS), long-term” value ([1]; Table S2a, 10^-6 mol/L) was −0.051, the “delta slope (DS), long-term” value ([1]; Table S2a, 10^-6 mol/L, listed as An-152) was -0.051 and the “delta slope (DS), long-term” value ([1]; Table S2a, 10^-7 mol/L) was −0.029. The “delta slope (DS), long-term” value ([1]; Table S2a, 10^-7 mol/L, listed as An-152) was -0.029, the “delta slope (DS), long-term” value ([1]; Table S2a, 10^-8 mol/L) was -0.005 and the IC50 [2] was 200 ± 100 nM. The IC50 [3] was 35 ± 10 nM, the IC50 [4] was 1900 ± 300 nM and the “delta slope (DS), short-term” value ([5]; Table S2b, 10^-6 mol/L) was 0.008. For the same molecule, the “delta slope (DS), short-term” value ([5]; Table S2b, 10^-7 mol/L) was -0.001, the “delta slope (DS), short-term” value ([5]; Table S2b, 10^-8 mol/L) was 0.001 and the “delta slope (DS), long-term” value ([5]; Table S2b, 10^-6 mol/L) was −0.023. The “delta slope (DS), long-term” value ([5]; Table S2b, 10^-6 mol/L, listed as An-152) was -0.023, the “delta slope (DS), long-term” value ([5]; Table S2b, 10^-7 mol/L) was −0.008 and the “delta slope (DS), long-term” value ([5]; Table S2b, 10^-7 mol/L, listed as An-152) was -0.008. For the same molecule, the “delta slope (DS), long-term” value ([5]; Table S2b, 10^-8 mol/L) was -0.001.
